Data published in patent publication US10544125B2, “Process for preparing an anti-cancer agent, 1-((4-(4-fluoro-2-methyl-1H-indol-5-yloxy)-6-methoxyquinolin-7-yloxy)methyl)cyclopropanamine, its crystalline form and its salts” (Advenchen Pharmaceuticals, LLC, priority 2015, dated 2020).
≈ marks a conversion by molar mass, not a printed value. Counter-ions that a name gives are not always drawn.

How the values were obtained:
[1] = tested on: SKOV3 (ovarian); test: In vitro MTT (proliferation) assay; format: cell-based; conditions: SKOV3 cancer cell line
Procedure: (§1) In vitro MTT (proliferation) assay was performed with compound from above examples to give following inhibition results: […]

[2] = tested on: Saos-2 (sarcoma); test: In vitro MTT (proliferation) assay; format: cell-based; conditions: Saos-2 cancer cell line
Procedure: as §1

[3] = tested on: PANC-1 (pancreatic); test: In vitro MTT (proliferation) assay; format: cell-based; conditions: PANC-1 cancer cell line
Procedure: as §1

[4] = tested on: HCT1 16 (colon); test: In vitro MTT (proliferation) assay; format: cell-based; conditions: HCT1 16 cancer cell line
Procedure: as §1

[5] = tested on: PC-3 (prostate); test: In vitro MTT (proliferation) assay; format: cell-based; conditions: PC-3 cancer cell line
Procedure: as §1

[6] = tested on: BEL7404 (liver); test: In vitro MTT (proliferation) assay; format: cell-based; conditions: BEL7404 cancer cell line
Procedure: as §1

[7] = tested on: MKN45 (gastric); test: In vitro MTT (proliferation) assay; format: cell-based; conditions: MKN45 cancer cell line
Procedure: as §1

[8] = tested on: SW579 (thyroid); test: In vitro MTT (proliferation) assay; format: cell-based; conditions: SW579 cancer cell line
Procedure: as §1

[9] = tested on: Hela (cervical); test: In vitro MTT (proliferation) assay; format: cell-based; conditions: Hela cancer cell line
Procedure: as §1

[10] = tested on: MDA-MB-231 (breast); test: In vitro MTT (proliferation) assay; format: cell-based; conditions: MDA-MB-231 cancer cell line
Procedure: as §1

[11] = tested on: NC1-H157 (lung); test: In vitro MTT (proliferation) assay; format: cell-based; conditions: NC1-H157 cancer cell line
Procedure: as §1

[12] = tested on: Ishikawa (endometrial); test: In vitro MTT (proliferation) assay; format: cell-based, human; conditions: Ishikawa cancer cell line
Procedure: as §1

[13] = Conventional water solubility test; format: physicochemical
Text: Conventional water solubility test has been conducted to give the following results: […]

[14] = tested on: laser-induced CNV; test: Mouse model of laser-induced choroidal neovascularization (CNV); format: in vivo, C57 BL/6 mice; conditions: for reduction in average size of laser-induced CNV: C57 BL/6 mice, day -1 to day 10, FIG. 18
Procedure: A mouse model of laser-induced choroidal neovascularization (CNV)
(1) Experiments were performed in C57 BL/6 mice at 10 to 12 weeks of age. Laser CNV was induced with a 532 nm diode laser mounted on a slit lamp, using […], 100 ms duration and 100 mW laser energy. Each eye received 4 laser burns. Stock solution of AL3818-H1 was made by dissolving the compound in water to 25 mg/ml concentration, and further diluted to working solution of either 250 or 25 μg/ml in water. Mice were orally gavaged at dosage of 2.5 or 0.25 mg/kg body weight, in volume of 200 μl per 20 gram of body weight, once every day starting at one day before laser treatment until 10 days afterwards. Control group mice will receive gavage with water which is used to dissolve the compound. By the end of the experiment, mice were subjected to fluorescence angiography to exclude the spots with hemorrhage and other mechanic injuries caused by the procedures. Mice were sacrificed and CNV size was measured by immunostaining of RPE/choroid flat mount co-stained with FITC-conjugated isolectin B4 and anti-ICAM2 antibody. For groups of control, 0.25 mg/kg and 2.5 mg/kg, we examined 43, 44 and 49 eyes on RPE/choroid flat mount. After immunostaining, images were taken on a Zeiss fluorescence microscope. CNV size was measured in Image J software. […] (2) The potential synergistic or additive effects between AL3818-M and anti-VEGF antibody was also studied. Immediately after laser burn, mice were treated with a monoclonal VEGF neutralizing antibody from R&D Systems (mAb AF564) at 1 μg dosage by intravitreal injection. We had 4 experimental groups: control (treated with water), AL3818-M, anti-VEGF, and AL3818-M+anti-VEGF. A total of 75 laser spots were analyzed. Mice in control or AL3818-M alone group received the intravitreal injection of saline in the same 2 μl volume.

| Structure (SMILES) | IC50 ([1]; MTT (proliferation) assay) [µM] | IC50 ([2]; MTT (proliferation) assay) [µM] | IC50 ([3]; MTT (proliferation) assay) [µM] | IC50 ([4]; MTT (proliferation) assay) [µM] | IC50 [5] [µM] | IC50 [6] [µM] | IC50 [7] [µM] | IC50 [8] [µM] | IC50 [9] [µM] | IC50 ([10]; MTT (proliferation) assay) [µM] | IC50 [11] [µM] | IC50 [12] [µM] | water solubility [13] [mg/mL] | solubility [13] [mg/mL] | further results |
| --- | --- | --- | --- | --- | --- | --- | --- | --- | --- | --- | --- | --- | --- | --- | --- |
| COc1cc2c(Oc3ccc4[nH]c(C)cc4c3F)ccnc2cc1OCC1(N)CC1.Cl.Cl.O [AL3818-H2, 1-((4-(4-Fluoro-2-methyl-1H-indol-5-yloxy)-6-methoxy-quinolin-7-yloxy)methyl)cyclopropanamine bishydrochloridehydrate Acid Salt] | 5.7 | 4.98 | 1.55 | 3.34 | 3.88 | 1.74 | 3.9 | 1.29 | 4.07 | 5.71 | 2.29 | 1.56 | 7 |  |  |
| COc1cc2c(Oc3ccc4[nH]c(C)cc4c3F)ccnc2cc1OCC1(N)CC1 [AL3818-H1, 1-((4-(4-Fluoro-2-methyl-1H-indol-5-yloxy)-6-methoxy-quinolin-7-yloxy)-methyl)cyclopropanamine Bishydrochloride Acid Salt] |  |  |  |  | 5.53 | 2.75 | 1.77 | 2.33 |  |  | 7.18 | 5.67 | 6 |  | reduction in average size of laser-induced CNV ([14]; oral gavage 0.25 mg/kg body weight once daily): ~70%; reduction in average size of laser-induced CNV ([14]; oral gavage 2.5 mg/kg body weight once daily): ~70%; IC50 ([1]; Homo sapiens, SK-OV-3, MTT (proliferation) assay): 5.34 µM; IC50 ([2]; Homo sapiens, SAOS-2, MTT (proliferation) assay): 4.68 µM; IC50 ([3]; Homo sapiens, PANC-1, MTT (proliferation) assay): 1.58 µM; IC50 ([4]; Homo sapiens, HCT-116, MTT (proliferation) assay): 3.45 µM; IC50 ([9]; Homo sapiens, HeLa): 3.7 µM; IC50 ([10]; Homo sapiens, MDA-MB-231, MTT (proliferation) assay): 10.2 µM |
| COc1cc2c(Oc3ccc4[nH]c(C)cc4c3F)ccnc2cc1OCC1(N)CC1.O=C(O)/C=C\C(=O)O.O=C(O)/C=C\C(=O)O [AL3818-M, 1-((4-(4-Fluoro-2-methyl-1H-indol-5-yloxy)-6-methoxy-quinolin-7-yloxy)-methyl)cyclopropanamine Bismaleic Acid Salt] | 6.56 | 5.49 | 1.15 | 4.62 | 3.62 | 1.15 | 2.65 | 1.15 | 3.94 | 5.37 | 2.02 | 1.34 |  | 0.5 | reduction in laser CNV as compared to the control group ([14]; 0.15 mg/kg together with 1 μg anti-VEGF antibody (mAb AF564) intravitreal, P<0.01, FIG. 19): ~30% |
| COc1cc2c(Oc3ccc4[nH]c(C)cc4c3F)ccnc2cc1OCC1(N)CC1.O=C(O)CCC(=O)O [AL3818-S, 1-((4-(4-Fluoro-2-methyl-1H-indol-5-yloxy)-6-methoxy-quinolin-7-yloxy)methyl)cyclopropanamine Succinic Acid Salt] | 7.6 | 5.68 | 1.24 | 3.94 | 4.41 | 1.43 | 4.16 | 2.61 | 4.66 | 6.1 | 2.28 | 1.32 |  | 0.1 |  |
| COc1cc2c(Oc3ccc4[nH]c(C)cc4c3F)ccnc2cc1OCC1(N)CC1 [AL3818-F, 1-((4-(4-Fluoro-2-methyl-1H-indol-5-yloxy)-6-methoxyquinolin-7-yloxy)methyl)cyclopropanamine] | 5.97 | 5.13 | 1.34 | 3.25 | 5.11 | 0.93 | 3.11 | 1 | 3.23 | 5.56 | 1.83 | 1.04 | 0.02 (≈ 49.1 µM) |  |  |
